By inhibition is commonly meant the relative decrease from the control value, in per cent. A higher inhibition goes with a strong effect.

This passage reports inhibition results from patent publication US12187722B2, “Small molecule inhibitors of TEAD transcription factors” (The General Hospital Corporation, priority 2019, dated 2025).

Chain of TEAD2 (Q15562 whole entry): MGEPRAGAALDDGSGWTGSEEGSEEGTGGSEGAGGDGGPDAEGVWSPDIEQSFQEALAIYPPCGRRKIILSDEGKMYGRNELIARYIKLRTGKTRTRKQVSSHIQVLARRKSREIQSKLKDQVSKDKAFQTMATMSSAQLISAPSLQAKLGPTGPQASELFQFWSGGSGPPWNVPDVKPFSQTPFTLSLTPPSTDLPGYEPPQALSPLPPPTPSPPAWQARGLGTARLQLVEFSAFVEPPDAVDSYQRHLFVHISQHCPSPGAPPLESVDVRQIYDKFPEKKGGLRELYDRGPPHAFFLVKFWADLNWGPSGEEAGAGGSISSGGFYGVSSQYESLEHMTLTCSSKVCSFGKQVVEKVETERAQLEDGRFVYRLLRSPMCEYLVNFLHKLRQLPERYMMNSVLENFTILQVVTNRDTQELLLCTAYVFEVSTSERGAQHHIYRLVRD

The first test deals with TEAD2 (Homo sapiens (Human), UniProt Q15562). The test can be described thus: In vitro palmitoylation (TEAD2 autopalmitoylation, streptavidin blot). Conditions: compound at 10 μM; Table 2. It counts as biochemical. As for the experimental part:
Recombinant GST-TEAD2 or His6TEAD2 (500 ng) protein was pre-incubated with the compounds at indicated concentrations for 15 min. and then incubated with 1 μM of alkyne palmitoyl-5 CoA (Cayman Chemical) for 30 min or 50 mM MES, pH 6.4, followed by Click reaction with biotin-azide as previously described (Zheng, B. et al., J. Am. Chem. Soc., 2013, 135, 7082-7085). Click reaction was performed with 100 μM biotin-azide, 1 mM tris(2-carboxyethyl) phosphine hydrochloride (TCEP), 100 μM tris[(1-benzyl-1H-1,2,3-triazol-4-yl) methyl] amine (TBTA) and 1 mM CuSO4 for 1 h at RT.
The reactions were terminated by the addition of 12 μL of 6×SDS-sample loading buffer (50 mM Tris-HCl, pH 6.8, 6% SDS, 48% Glycerol, 0.03% Bromophenol Blue, 30 mM EDTA, 9% MeSH). Samples were analysed by SDS-PAGE and Western blot was performed by probing with streptavidin HRP and histidine HRP antibodies independently. Bands intensity obtained from streptavidin blot were quantified using BIORAD, Gel doc system and the percentage of inhibition of Tead2 auto palmitoylation is determined by comparing to the DMSO control treated samples.
These compounds were tested for activity in inhibiting TEAD2 palmitoylation in the assay described above.
`COC(=O)c1ccccc1Nc1cccc(Nc2ccc(C34CC5CC(CC(C5)C3)C4)cc2)c1` [Compound 1] registered an inhibition at 10 µM of 10%.

Molecule `COC(=O)c1ccccc1Nc1ccc(Nc2ccc(C34CC5CC(CC(C5)C3)C4)cc2)cc1` [Compound 2] registered an inhibition at 10 µM of 0%. Same read-out and setting: with `COC(=O)c1ccccc1Nc1cc(Nc2ccc(C34CC5CC(CC(C5)C3)C4)cc2)cc(C(F)(F)F)c1` [Compound 3] the figure was 0%.

Staying with this test, now noted: compound at 10 μM; Table 3.
The molecule `COc1ccc(Nc2ccc(N(C)c3ccc(C(F)(F)F)cc3)cc2)c(C#N)c1` [CP-608] showed an inhibition at 10 µM of 43%. `COc1ccc(Nc2cnc(N(C)c3ccc(C4CCCCC4)cc3)cc2C)c(C(=O)O)c1` [CP-609]: testing at 10 µM gave an inhibition of 54%. For `COc1ccc(Nc2ccc(N(C)c3cc(Cl)cc(Cl)c3)cc2)c(C(=O)O)c1` [CP-612], at 10 µM the inhibition was 86%. `CN(c1ccc(Nc2ccc(NS(C)(=O)=O)cc2C(=O)O)cc1)c1ccc(C(F)(F)F)cc1` [CP-613] gave an inhibition at 10 µM of 83%. As to `CNS(=O)(=O)c1ccc(Nc2ccc(N(C)c3ccc(C4CCCCC4)cc3)cc2C)c(C(=O)O)c1` [CP-614], the inhibition at 10 µM is 83%. For the molecule `COc1ccc(Nc2ccc(Oc3ccc(S(F)(F)(F)(F)F)cc3Cl)nc2)c(C(=O)O)c1` [CP-615], the inhibition at 10 µM stood at 82%. On the same count and under the same terms, to `COc1ccc(Nc2cnc(Oc3ccc(C4CCCCC4)cc3Cl)nc2)c(C(=O)O)c1` [CP-616] belongs 73%. `COc1ccc(Nc2ccc(N(C)c3ccc(C(F)(F)F)c(Cl)c3)cc2)c(C(=O)O)c1` [CP-617] showed an inhibition at 10 µM of 76%.

`COc1ccc(Nc2ccc(N(C)c3cc(C4CCCCC4)nn3C)cc2)c(C(=O)O)c1` [CP-618] came in with an inhibition at 10 µM of 31%.

`Cc1cc(N(C)c2ccc(C3CCCCC3)cc2)ccc1Nc1ccc(NC2CCOCC2)cc1C(=O)O` [CP-620]: the inhibition at 10 µM worked out at 0%. Consider `Cc1cc(N(C)c2ccc(C3CCCCC3)cc2)ccc1Nc1ccc(N2CCOCC2)cc1C(=O)O` [CP-621], for which 10 µM produced 47% inhibition.

As to `COc1ccc(Nc2ccc(N(C)c3ccc(SC(F)(F)F)cc3)cc2)c(C(=O)O)c1` [CP-622], the inhibition at 10 µM was 94%. Turning to `COc1ccc(Nc2ccc(C3CC3)cc2N(C)c2ccc(C3CCCCC3)cc2)c(C(=O)O)c1` [CP-623], at 10 µM the inhibition was 73%.

Regarding `COc1ccc(Nc2ccc(N(C)c3cc(C(F)(F)F)nn3C)cc2)c(C(=O)O)c1` [CP-624], testing at 10 µM gave an inhibition of 15%. For `Cc1cc(N(C)c2ccc(C3CCCCC3)cc2)ccc1Nc1ccc(F)cc1C(=O)O` [CP-625], the inhibition at 10 µM was 87%.

Regarding `Cc1cc(N(C)c2ccc(C3CCCCC3)cc2)ccc1Nc1ccc(N2CC3(COC3)C2)cc1C(=O)O` [CP-627], at 10 µM the inhibition was 51%. The molecule `CCCCOc1ccc(Nc2ccc(N(C)c3ccc(C4CCCCC4)cc3)cc2C)c(C(=O)O)c1` [CP-628] displayed an inhibition at 10 µM of 40%. In turn, `COc1ccc(Nc2ccc(N(C)c3ccc(C4CCCCC4)cc3)cc2C)c(C(F)(F)F)c1` [CP-629] had an inhibition at 10 µM of 24%. The same measure, in the same setting: to `Cc1cc(N(C)c2ccc(C3CCCCC3)cc2)ccc1Nc1ccc(C2CC2)cc1C(=O)O` [CP-630] belongs 39%; to `Cc1ccc(Nc2ccc(N(C)c3ccc(C4CCCCC4)cc3)cc2C)c(C(=O)O)c1` [CP-631], 81%; to `CNC(=O)c1ccc(Nc2ccc(N(C)c3ccc(C4CCCCC4)cc3)cc2C)c(C(=O)O)c1` [CP-632], 73%. Turning to `Cc1cc(N(C)c2ccc(C3CCCCC3)cc2)ccc1Nc1ccc(OCC(C)(C)C)cc1C(=O)O` [CP-633], the inhibition at 10 µM was 25%.

Take `Cc1cc(N(C)c2ccc(C3CCCCC3)cc2)ccc1Nc1ccc(OC2CCCCC2)cc1C(=O)O` [CP-634]: the inhibition at 10 µM came out at 32%. `Cc1cc(N(C)c2ccc(C3CCCCC3)cc2)ccc1Nc1ccc(CN)cc1C(=O)O` [CP-635] had an inhibition at 10 µM of 27%.

As for `Cc1cc(N(C)c2ccc(C3CCCCC3)cc2)ccc1Nc1cccc(C(=O)O)n1` [CP-636], the inhibition at 10 µM was determined as 68%. Still for that read-out and setting: to `CNCc1ccc(Nc2ccc(N(C)c3ccc(C4CCCCC4)cc3)cc2C)c(C(=O)O)c1` [CP-637] belongs 5%; to `O=C(O)c1cccc(NC(=O)c2ccc(Nc3ccc(C4CCCCC4)cc3)cc2)c1` [CP-638], 67%; to `Cc1cc(N(C)c2ccc(C3CCCCC3)cc2)ccc1Nc1ccc(CN(C)C)cc1C(=O)O` [CP-640], 20%.

Turning to `O=C(O)c1cccc(Nc2cc(Nc3ccc(C4CCCCC4)cc3)cc(C(F)(F)F)c2)n1` [CP-641], the inhibition at 10 µM stood at 69%. The molecule `Cc1cc(C(=O)Nc2ccc(C3CCCCC3)cc2)ccc1Nc1cccc(C(=O)O)n1` [CP-642] registered an inhibition at 10 µM of 55%.

`CN(c1ccc(C2CCCCC2)cc1)c1ccc(Nc2cccc(C(=O)O)n2)cn1` [CP-643] had an inhibition at 10 µM of 89%. In turn, `Cc1cc(N(C)c2ccc(OCC(F)(F)F)cc2)ccc1Nc1cccc(C(=O)O)n1` [CP-646] gave an inhibition at 10 µM of 39%. `Cc1cc(N(C)c2ccc(OC(F)(F)F)cc2)ccc1Nc1cccc(C(=O)O)n1` [CP-647] displayed an inhibition at 10 µM of 87%. With `CN(c1ccc(Nc2cccc(C(=O)O)n2)cc1)c1ccc(C(F)(F)F)cc1` [CP-648], 10 µM produced 89% inhibition. In turn, `Cc1cc(Nc2ccc(C3CCCCC3)cc2)ccc1C(=O)Nc1cccc(C(=O)O)c1` [CP-649] came in with an inhibition at 10 µM of 99%. Turning to `COc1ccc(Nc2ccc(Nc3ccc(C45CC6CC(CC(C6)C4)C5)cc3Cl)cc2)nc1C(=O)O` [CP-650], the inhibition at 10 µM was determined as 93%. For `Cc1cc(C(=O)Nc2cccc(C(=O)O)c2)ccc1Nc1ccc(C2CCCCC2)cc1` [CP-651], the inhibition at 10 µM is 85%.

`Cc1cc(N(C)c2ccc(C3CCCCC3)cc2)ncc1Nc1cccc(C(=O)O)n1` [CP-652]: testing at 10 µM gave an inhibition of 37%.

`CNC(=O)c1nc(Nc2ccc(N(C)c3ccc(C4CCCCC4)cc3)cc2C)ccc1S(=O)(=O)NC` [CP-653] showed an inhibition at 10 µM of 24%. Molecule `COc1ccc(Nc2ccc(N(C)c3ccc(C4CCCCC4)cc3)nc2)nc1C(=O)O` [CP-654] registered an inhibition at 10 µM of 36%. `CNS(=O)(=O)c1ccc(Nc2ccc(N(C)c3ccc(C4CCCCC4)cc3)cc2C)nc1C(=O)O` [CP-656] came in with an inhibition at 10 µM of 90%. `CNS(=O)(=O)c1ccc(Nc2ccc(N(C)c3ccc(C4CCCCC4)cc3)cc2C)c(C#N)c1` [CP-657] returned an inhibition at 10 µM of 18%. On to `CN(c1ccc(Nc2cccc(C(=O)O)n2)cn1)c1ccc(C2CCCCC2)cc1Cl` [CP-659], for which the inhibition at 10 µM was determined as 46%. The same measure, in the same setting: to `O=C(O)c1cccc(Nc2cc(Nc3ccc(C4CCCCC4)cc3Cl)cc(C(F)(F)F)c2)n1` [CP-660] belongs 66%; to `COc1ccc(Nc2cc(Nc3ccc(C4CCCCC4)cc3)cc(C(F)(F)F)c2)nc1C(=O)O` [CP-661], 77%; to `O=C(O)c1cccc(Nc2cc(Nc3ccc(C4CCCCC4)cc3)cc(C(F)(F)F)c2)c1` [CP-662], 88%.

The molecule `CN(c1ccc(C2CCCCC2)cc1)c1cc(C2CC2)c(Nc2cccc(C(=O)O)n2)cn1` [CP-663] displayed an inhibition at 10 µM of 45%.

For `O=C(Nc1ccc(C2CCCCC2)cc1)c1cccc(Nc2ccccc2C(=O)O)c1` [CP-664], at 10 µM the inhibition was 50%. Molecule `O=C(Nc1ccc(C2CCCCC2)cc1Cl)c1cccc(Nc2ncccc2C(=O)O)c1` [CP-665] returned an inhibition at 10 µM of 96%. The molecule `O=C(Nc1ccc(C2CCCCC2)cc1Cl)c1cccc(Nc2ccccc2C(=O)O)c1` [CP-666] gave an inhibition at 10 µM of 79%. Still for that read-out and setting: with `COc1ccc(Nc2cccc(C(=O)Nc3ccc(C4CCCCC4)cc3Cl)c2)c(C(=O)O)c1` [CP-669] the figure was 75%; with `CNS(=O)(=O)c1ccc(Nc2ccc(N(C)c3ccc(C4CCCCC4)cc3Cl)cc2C)c(C(=O)O)c1` [CP-671], 97%; with `O=C(Nc1ccc(C2CCCCC2)cc1Cl)c1cccc(Nc2ccc(OC3CC3)cc2C(=O)O)c1` [CP-672], 55%.

In the case of `Cc1cc(N(C)c2ccc(C3CCCCC3)cc2)ncc1Nc1ccc(OC2CC2)cc1C(=O)O` [CP-673], the inhibition at 10 µM was 15%. The same measure, in the same setting: to `COc1ccc(Nc2cc(Nc3ccc(C4CCCCC4)cc3Cl)cc(C(F)(F)F)c2)nc1C(=O)O` [CP-675] belongs 83%; to `O=C(O)c1cccc(Nc2cc(Nc3ccc(C4CCCCC4)cc3Cl)cc(C(F)(F)F)c2)c1` [CP-676], 97%; to `O=C(O)c1cccnc1Nc1cccc(Nc2ccc(C3CCCCC3)cc2Cl)c1` [CP-677], 96%. For `Cc1cc(N(C)c2ccc(C3CCCCC3)cc2)ccc1Nc1ccc(C(=O)N2CC(C#N)C2)cc1C(=O)O` [CP-678], at 10 µM the inhibition was 59%. Same read-out and setting: to `Cc1cc(N(C)c2ccc(C3CCCCC3)cc2)ccc1Nc1ccc(C(=O)N2CC(C(N)=O)C2)cc1C(=O)O` [CP-679] belongs 81%. `Cc1cc(N(C)c2ccc(C3CCCCC3)cc2Cl)ccc1Nc1cccc(C(=O)O)n1` [CP-681] showed an inhibition at 10 µM of 8%. In turn, `O=C(O)c1cccc(Nc2cccc(Nc3ccc(C4CCCCC4)cc3Cl)c2)n1` [CP-682] registered an inhibition at 10 µM of 51%. On the same count and under the same terms, with `N#Cc1cccc(Nc2ccc(Nc3ccc(C45CC6CC(CC(C6)C4)C5)cc3Cl)cc2)n1` [CP-688] the figure was 17%.

Regarding `CNS(=O)(=O)c1cccc(Nc2ccc(Nc3ccc(C45CC6CC(CC(C6)C4)C5)cc3Cl)cc2)n1` [CP-694], the inhibition at 10 µM stood at 79%.
